Test results from patent US20250066343A1, “NOVEL CANNAB[…] DERIVATIVE, PREPARATION METHOD THEREFOR, AND COMPOSITION COMPRISING SAME FOR IMPROVING COGNITIVE FUNCTION” (priority 2021, published 2025).

Assays:
Type in all cases: biochemical
[1] = target: Acetylcholinesterase (AChE) (Homo sapiens, UniProt P22303); experiment: Acetylcholinesterase inhibitory efficacy (acetylthiocholine/DTNB absorbance assay)
Description: (§1) Acetylcholinesterase or butyrylcholinesterase was prepared at 50 mU/ml, 50 μl was added to a 96-well plate, mixed with the aliquoted compound, and left for 10 minutes. The substrate, acetylthiocoline 0.05 mg/mL or butyrylthiocoline 0.1 mg/ml, was prepared and 50 μl was added to a 96-well plate and left for 10 minutes. Dithionitrobenzoic acid (DTNB) was prepared at 0.3 mg/ml, then 50 μl was added to a 96-well plate and left for 10 minutes.

[2] = target: T1, Monoamine oxidase B (MAO-B) (Homo sapiens, UniProt P27338); experiment: Monoamine oxidase B inhibitory efficacy (kynuramine fluorescence assay); settings: compound 0-200 μM; enzyme 2 mU/mL; kynuramine substrate; N.D. = Not Detected
T1 sequence (P27338 1-520): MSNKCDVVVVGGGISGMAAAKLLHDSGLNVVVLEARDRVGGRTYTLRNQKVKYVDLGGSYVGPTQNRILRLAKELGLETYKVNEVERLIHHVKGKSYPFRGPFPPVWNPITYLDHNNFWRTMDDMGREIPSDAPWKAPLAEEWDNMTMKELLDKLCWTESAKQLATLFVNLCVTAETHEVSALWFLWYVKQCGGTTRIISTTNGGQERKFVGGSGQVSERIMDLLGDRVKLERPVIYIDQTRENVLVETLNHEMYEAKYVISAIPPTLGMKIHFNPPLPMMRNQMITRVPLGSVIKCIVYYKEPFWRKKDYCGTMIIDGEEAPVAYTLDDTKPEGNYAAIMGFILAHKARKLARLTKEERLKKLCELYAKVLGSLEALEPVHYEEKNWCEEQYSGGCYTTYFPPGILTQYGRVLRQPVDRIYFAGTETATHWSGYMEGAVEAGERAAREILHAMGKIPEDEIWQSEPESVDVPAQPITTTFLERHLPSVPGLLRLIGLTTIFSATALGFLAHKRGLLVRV
Description: Samples were prepared by dilution with DMSO to give concentrations of 0, 2, 5, 10, 20, 50, 100, and 200 μM of the compound, and 5 μl was dispensed into a 96-well plate. 135 μl of potassium phosphate buffer (0.1 M, 7.4 pH) was dispensed into a 96-well plate. Monoamine oxidase B was prepared at 2 mU/mL, and 50 μl was added to the 96-well plate, mixed with the dispensed compound, and left for 20 minutes. The substrate, kynuramine solution, was prepared at 100 μM, then 10 μl was added to a 96-well plate and left for 10 min. The reaction was stopped by adding 75 μl of NaOH (2N). The enzyme activity was calculated by measuring the concentration of kynuramine degraded by the enzyme using a fluorometer under 310 nm (excitation)/380 nm (emission) conditions. For the fluorescence blank experiment, potassium phosphate buffer was added instead of monoamine oxidase B to correct the compound-induced fluorescence intensity values.

[3] = target: Butyrylcholinesterase (BuChE) (Homo sapiens, UniProt P06276); experiment: Butyrylcholinesterase inhibitory efficacy (butyrylthiocholine/DTNB absorbance assay); settings: compound 0-200 μM; enzyme 50 mU/ml; N.D. = Not Detected
Description: as §1

Acetylcholinesterase (AChE), sequence (P22303 32-614, species assumed): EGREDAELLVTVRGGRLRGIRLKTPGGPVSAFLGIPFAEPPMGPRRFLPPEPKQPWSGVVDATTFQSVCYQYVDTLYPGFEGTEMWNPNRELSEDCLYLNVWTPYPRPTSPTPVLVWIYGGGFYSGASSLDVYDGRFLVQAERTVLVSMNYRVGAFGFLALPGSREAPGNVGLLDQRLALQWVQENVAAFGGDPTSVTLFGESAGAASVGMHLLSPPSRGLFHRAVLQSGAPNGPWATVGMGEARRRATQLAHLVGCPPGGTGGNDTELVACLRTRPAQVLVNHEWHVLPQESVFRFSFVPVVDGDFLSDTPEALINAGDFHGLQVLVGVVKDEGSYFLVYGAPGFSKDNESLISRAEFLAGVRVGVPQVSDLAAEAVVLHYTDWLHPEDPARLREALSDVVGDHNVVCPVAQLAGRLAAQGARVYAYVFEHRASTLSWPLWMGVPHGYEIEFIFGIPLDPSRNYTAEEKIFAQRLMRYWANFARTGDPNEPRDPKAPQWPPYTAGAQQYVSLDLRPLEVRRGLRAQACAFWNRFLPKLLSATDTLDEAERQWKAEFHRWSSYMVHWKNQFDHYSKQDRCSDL
Butyrylcholinesterase (BuChE), sequence (P06276 29-602): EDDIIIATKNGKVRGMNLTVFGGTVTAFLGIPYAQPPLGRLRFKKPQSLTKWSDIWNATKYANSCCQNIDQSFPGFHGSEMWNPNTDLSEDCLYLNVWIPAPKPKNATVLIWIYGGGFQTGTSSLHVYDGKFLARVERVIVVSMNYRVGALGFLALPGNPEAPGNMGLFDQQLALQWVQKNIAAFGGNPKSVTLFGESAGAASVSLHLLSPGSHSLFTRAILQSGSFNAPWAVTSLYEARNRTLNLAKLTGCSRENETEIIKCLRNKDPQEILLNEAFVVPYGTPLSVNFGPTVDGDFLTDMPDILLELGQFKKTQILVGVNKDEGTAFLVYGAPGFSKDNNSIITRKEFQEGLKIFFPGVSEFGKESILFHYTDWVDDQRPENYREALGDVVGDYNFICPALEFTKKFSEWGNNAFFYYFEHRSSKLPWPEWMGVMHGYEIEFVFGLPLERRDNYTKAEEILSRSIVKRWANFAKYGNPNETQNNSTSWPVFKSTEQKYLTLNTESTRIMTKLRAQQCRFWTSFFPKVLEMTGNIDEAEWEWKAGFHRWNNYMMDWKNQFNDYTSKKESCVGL

CCCCCc1cc2c(c(O)c1C(=O)NC(C)C)C=CC(C)(CCC=C(C)C)O2 (stereo not drawn) [Compound 4a, 5-hydroxy-N-isopropyl-2-methyl-2-(4-methylpent-3-en-1-yl)-7-pentyl-2H-chromene-6-carboxamide] was tested, and the IC50 [1] was 1.3 µM.

Compound CCCCCc1cc2c(c(O)c1C(=O)NC1CCCCCC1)C=CC(C)(CCC=C(C)C)O2 (stereo not drawn) [Compound 4ab, N-cycloheptyl-5-hydroxy-2-methyl-2(4-methylpent-3en-1-yl)-7-pentyl-2H-chromene-6-carboxamide] has an IC50 [1] of 2.6 µM.

With CCCCCc1cc2c(c(O)c1C(=O)N1CCc3ccccc3C1)C=CC(C)(CCC=C(C)C)O2 (stereo not drawn) [Compound 4ac, (3,4-dihydroisoquinolin-2(1H)-yl)(5-hydroxy-2-methyl-2-(4-methylpent-3-en-1-yl)-7-pentyl-2H-chromen-6-yl)methanone] the IC50 [2] was 137 µM and the IC50 [1] was 2.1 µM.

With CCCCCc1cc2c(c(O)c1C(=O)Nc1ccc(Br)cc1)C=CC(C)(CCC=C(C)C)O2 (stereo not drawn) [Compound 4ad, N-(4-bromophenyl)-5-hydroxy-2-methyl-2-(4-methylpent-3-en-1-yl)-7-pentyl-2H-chromene-6-carboxamide] the IC50 [2] was 12 µM and the IC50 [1] was < 0.5 µM.

In the case of CCCCCc1cc2c(c(O)c1C(=O)NC1CCOCC1)C=CC(C)(CCC=C(C)C)O2 (stereo not drawn) [Compound 4af, 5-hydroxy-2-methyl-2-(4-methylpent-3-en-1-yl)-7-pentyl-N-(tetrahydro-2H-pyran-4-yl)-2H-chromene-6-carboxamide], the IC50 [2] is reported as 194 µM and the IC50 [1] is reported as 46.1 µM.

With CCCCCc1cc2c(c(O)c1C(=O)N(C)C1CCCC1)C=CC(C)(CCC=C(C)C)O2 (stereo not drawn) [Compound 4ag, N-cyclopentyl-5-hydroxy-N,2-dimethyl-2-(4-methylpent-3-en-1-yl)-7-pentyl-2H-chromene-6-carboxamide] the IC50 [2] was 14.4 µM and the IC50 [1] was 47.7 µM.

Compound CCCCCc1cc2c(c(O)c1C(=O)NC1CC1)C=CC(C)(CCC=C(C)C)O2 (stereo not drawn) [Compound 4c, N-cyclopropyl-5-hydroxy-2-methyl-2-(4-methylpent-3-en-1-yl)-7-pentyl-2H-chromene-6-carboxamide] has an IC50 [1] of 4.3 µM.

CCCCCc1cc2c(c(O)c1C(=O)NCCCC)C=CC(C)(CCC=C(C)C)O2 (stereo not drawn) [Compound 4d, N-butyl-5-hydroxy-2-methyl-2-(4-methylpent-3-en-1-yl)-7-pentyl-2H-chromene-6-carboxamide] was tested, and the IC50 [1] was 1 µM.

CCCCCc1cc2c(c(O)c1C(=O)NC1CCCC1)C=CC(C)(CCC=C(C)C)O2 (stereo not drawn) [Compound 4e, N-cyclopentyl-5-hydroxy-2-methyl-2-(4-methylpent-3-en-1-yl)-7-pentyl-2H-chromene-6-carboxamide] was tested, and the IC50 [3] was 0.4 µM and the IC50 [1] was 0.4 µM.

CCCCCc1cc2c(c(O)c1C(=O)NC1CCCCC1)C=CC(C)(CCC=C(C)C)O2 (stereo not drawn) [Compound 4f, N-cyclohexyl-5-hydroxy-2-methyl-2-(4-methylpent-3-en-1-yl)-7-pentyl-2H-chromene-6-carboxamide] showed an IC50 [1] of 1.2 µM.

For CCCCCCCCCNC(=O)c1c(CCCCC)cc2c(c1O)C=CC(C)(CCC=C(C)C)O2 (stereo not drawn) [Compound 4g, 5-hydroxy-2-methyl-2-(4-methylpent-3-en-1-yl)-N-nonyl-7-pentyl-2H-chromene-6-carboxamide], the IC50 [2] was 111 µM and the IC50 [1] was 0.5 µM.

CCCCCCCCCCCCNC(=O)c1c(CCCCC)cc2c(c1O)C=CC(C)(CCC=C(C)C)O2 (stereo not drawn) [Compound 4h, N-dodecyl-5-hydroxy-2-methyl-2-(4-methylpent-3-en-1-yl)-7-pentyl-2H-chromene-6-carboxamide] gave an IC50 [1] of 2.3 µM.

With C=CCCCCCCCCCNC(=O)c1c(CCCCC)cc2c(c1O)C=CC(C)(CCC=C(C)C)O2 (stereo not drawn) [Compound 4i, 5-hydroxy-2-methyl-2-(4-methylpent-3-en-1-yl)-7-pentyl-N-(undec-10-en-1-1)-2H-chromene-6-carboxamide] the IC50 [2] was 66.8 µM and the IC50 [1] was 0.3 µM.

CCCCCc1cc2c(c(O)c1C(=O)NCC(CC)CCCC)C=CC(C)(CCC=C(C)C)O2 (stereo not drawn) [Compound 4j, N-(2-ethylhexyl)-5-hydroxy-2-methyl-2-(4-methylpent-3-en-1-yl)-7-pentyl-2H-chromene-6-carboxamide] gave an IC50 [2] of 43.3 µM and an IC50 [1] of 1.3 µM.

In the case of CCCCCc1cc2c(c(O)c1C(=O)NC/C=C(\C)CCC=C(C)C)C=CC(C)(CCC=C(C)C)O2 (stereo not drawn) [Compound 4k, (E)-N-(3,7-dimethylocta-2,6-dien-1-yl)-5-hydroxy-2-methyl-2-(4-methylpent-3-en-1-yl)-7-pentyl-2H-chromene-6-carboxamide], the IC50 [2] is reported as 59.3 µM and the IC50 [1] is reported as 1.3 µM.

For CCCCCc1cc2c(c(O)c1C(=O)N1CCS(=O)(=O)CC1)C=CC(C)(CCC=C(C)C)O2 (stereo not drawn) [Compound 4l, (1,1-dioxidothiomorpholino)(5-hydroxy-2-methyl-2-(4-methylpent-3-en-1-yl)-7-pentyl-2H-chromen-6-yl)methanone], the IC50 [2] was 162 µM.

In the case of C#CCNC(=O)c1c(CCCCC)cc2c(c1O)C=CC(C)(CCC=C(C)C)O2 (stereo not drawn) [Compound 4m, 5-hydroxy-2-methyl-2-(4-methylpent-3-en-1-yl)-7-pentyl-N-(prop-2-yn-1-yl)-2H-chromene-6-carboxamide], the IC50 [2] is reported as 79.7 µM and the IC50 [1] is reported as 3.6 µM.

Work on CCCCCc1cc2c(c(O)c1C(=O)NCCCc1ccccc1)C=CC(C)(CCC=C(C)C)O2 (stereo not drawn) [Compound 4n, 5-hydroxy-2-methyl-2-(4-methylpent-3-en-1-yl)-7-pentyl-N--(3phenylpropyl)-2H-chromene-6-carboxamide] yielded an IC50 [2] of 19 µM and an IC50 [1] of 1.2 µM.

For CCCCCc1cc2c(c(O)c1C(=O)NC1CCN(S(C)(=O)=O)CC1)C=CC(C)(CCC=C(C)C)O2 (stereo not drawn) [Compound 4o, 5-hydroxy-2-methyl-2-(4-methylpent-3-en-1-yl)-N-(1-(methylsulfonyl)piperidin-4-yl)-7-pentyl-2H-chromene-6-carboxamide], the IC50 [2] was 8.43 µM.

CCCCCc1cc2c(c(O)c1C(=O)NCc1cc(Br)cs1)C=CC(C)(CCC=C(C)C)O2 (stereo not drawn) [Compound 4p, N-((4-bromothiophen-2-yl)methyl)-5-hydroxy-2-methyl-2-(4-methylpent-3-en-1-yl)-7-pentyl-2H-chromene-6-carboxamide] was tested, and the IC50 [1] was 0.6 µM.

In the case of CCCCCc1cc2c(c(O)c1C(=O)Nc1ncc(C)s1)C=CC(C)(CCC=C(C)C)O2 (stereo not drawn) [Compound 4r, 5-hydroxy-2-methyl-2-(4-methylpent-3-en-1-yl)-N-(5-methylthiazol-2-yl)-7-pentyl-2H-chromene-6-carboxamide], the IC50 [2] is reported as 19.1 µM and the IC50 [1] is reported as 1.1 µM.

CCCCCc1cc2c(c(O)c1C(=O)N[C@H]1CCCN(C(=O)OC(C)(C)C)C1)C=CC(C)(CCC=C(C)C)O2 (stereo partly drawn) [Compound 4s, tert-butyl(3S)-3-(5-hydroxy-2-methyl-2-(4-methylpent-3-en-1-yl)-7-pentyl-2H-chromene-6-carboxamido)piperidine-1-carboxylate] was tested, and the IC50 [2] was 15.5 µM and the IC50 [1] was 52.2 µM.

Compound CCCCCc1cc2c(c(O)c1C(=O)Nc1ccc(C)cc1)C=CC(C)(CCC=C(C)C)O2 (stereo not drawn) [Compound 4t, 5-hydroxy-2-methyl-2-(4-methylpent-3-en-1-yl)-7-pentyl-N-(p-tolyl)-2H-chromene-6-carboxamide] has an IC50 [1] of 47.7 µM.

With CCCCCc1cc2c(c(O)c1C(=O)NC(C)CC)C=CC(C)(CCC=C(C)C)O2 (stereo not drawn) [Compound 4v, N-(sec-butyl)-5-hydroxy-2-methyl-2-(4-methylpent-3-en-1-yl)-7-pentyl-2H-chromene-6-carboxamide] the IC50 [1] was 6.6 µM.

In the case of CCCCCc1cc2c(c(O)c1C(=O)Nc1ccc(-c3ccc(F)cc3)cc1)C=CC(C)(CCC=C(C)C)O2 (stereo not drawn) [Compound 4w, N-(4′-fluoro-[1,1′-biphenyl]-4-yl)-5-hydroxy-2-methyl-2-(4-methylpent-3-en-1-yl)-7-pentyl-2H-chromene-6-carboxamide], the IC50 [2] is reported as 7.1 µM and the IC50 [1] is reported as 13.7 µM.

Compound CCCCCc1cc2c(c(O)c1C(=O)NCCc1ccc(O)cc1)C=CC(C)(CCC=C(C)C)O2 (stereo not drawn) [Compound 4x, 5-hydroxy-N-(4-hydroxyphenethyl)-2-methyl-2-(4-methylpent-3-en-1-yl)-7-pentyl-2H-chromene-6-carboxamide] has an IC50 [3] of 2.6 µM and an IC50 [1] of 0.8 µM.

CCCCCc1cc2c(c(O)c1C(=O)NCCS)C=CC(C)(CCC=C(C)C)O2 (stereo not drawn) [Compound 4y, 5-hydroxy-N-(2-mercaptoethyl)-2-methyl-2-(4-methylpent-3-en-1-yl)-7-pentyl-2H-chromene-6-carboxamide] gave an IC50 [1] of 6.2 µM.
